Data: patent US20140357655A1, “SPIROINDOLINE DERIVATIVES AS GONADOTROPIN- RELEASING HORMONE RECEPTOR ANTAGONISTS” (Bayer Intellectual Property GmbH, priority 2012, published 2014)

Molecular target: T1, human GnRH receptor (Homo sapiens, UniProt P30968)
T1 sequence (P30968 1-328): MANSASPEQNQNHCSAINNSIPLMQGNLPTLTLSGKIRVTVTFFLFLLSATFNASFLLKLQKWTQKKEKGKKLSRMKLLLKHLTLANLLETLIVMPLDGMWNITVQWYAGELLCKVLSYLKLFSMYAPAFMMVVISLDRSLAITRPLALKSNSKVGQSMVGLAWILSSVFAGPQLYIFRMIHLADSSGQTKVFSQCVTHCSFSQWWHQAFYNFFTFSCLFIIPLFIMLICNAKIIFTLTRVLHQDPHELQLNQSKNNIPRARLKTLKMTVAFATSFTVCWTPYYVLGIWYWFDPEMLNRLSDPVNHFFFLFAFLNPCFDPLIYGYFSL
Assay: IP-One HTRF assay with buserelin (at EC80) stimulation
Type: cell-based
Details: CHO cells stably expressing human GnRH receptor, read-out: Potency in IP-One HTRF assay, given as IC50
In short: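 Ten-point duplicate titrations (20 μM to 1 nM) were fitted by 4-parameter model to normalized 665/620 nm HTRF ratios, 0% = no compound, 100% = no agonist. Assay measured IP1 accumulation in human GnRH-R CHO cells stimulated 1 h at 37° C with EC80 buserelin, then lysed 1 h at 22° C.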

SMILES	IC50 [nM]
COc1cccc(S(=O)(=O)N2c3ccc(C(=O)NCc4ncccc4Cl)cc3C3(CCS(=O)(=O)CC3)C2C2CC2)c1 (single isomer, unassigned) [Example 41.2, N-[(3-chloropyridin-2-yl)methyl]-2-cyclopropyl-1-[(3-methoxyphenyl)sulfonyl]-1,2,2′,3′,5′,6′-hexahydrospiro[indole-3,4′-thiopyran]-5-carboxamide 1′,1′-dioxide]	428
O=C(NCc1ncccc1C(F)(F)F)c1ccc2c(c1)C1(CCS(=O)(=O)CC1)C(C1CC1)N2S(=O)(=O)c1ccc(F)cc1 (stereo not shown) [Example 15, 2-cyclopropyl-1-[(4-fluorophenyl)sulfonyl]-N-{[3-(trifluoromethyl)pyridin-2-yl]methyl}-1,2,2′,3′,5′,6′-hexahydrospiro[indole-3,4′-thiopyran]-5-carboxamide 1′,1′-dioxide]	103
O=C(O)c1cccc(NC(=O)c2ccc3c(c2)C2(CCS(=O)(=O)CC2)C(C2CC2)N3S(=O)(=O)c2cccc(OC(F)F)c2)c1 (single isomer, unassigned) [Example 90.1, 3-{[(2-cyclopropyl-1-{[3-(difluoromethoxy)phenyl]sulfonyl}-1′,1′-dioxido-1,2,2′,3′,5′,6′-hexahydrospiro[indole-3,4′-thiopyran]-5-yl)carbonyl]amino}benzoic acid]	41
COC(=O)c1cccc(NC(=O)c2ccc3c(c2)C2(CCS(=O)(=O)CC2)C(C2CC2)N3S(=O)(=O)c2cccc(OC(F)F)c2)c1 (stereo not shown) [Example 89, methyl 3-{[(2-cyclopropyl-1-{[3-(difluoromethoxy)phenyl]sulfonyl}-1′,1′-dioxido-1,2,2′,3′,5′,6′-hexahydrospiro[indole-3,4′-thiopyran]-5-yl)carbonyl]amino}benzoate]	134
O=C(NCc1ncccc1C(F)(F)F)c1ccc2c(c1)C1(CCS(=O)(=O)CC1)C(C1CC1)N2S(=O)(=O)c1cccc(OC(F)F)c1 (stereo not shown) [Example 87, 2-cyclopropyl-1-{[3-(difluoromethoxy)phenyl]sulfonyl}-N-{[3-(trifluoromethyl)pyridin-2-yl]methyl}-1,2,2′,3′,5′,6′-hexahydrospiro[indole-3,4′-thiopyran]-5-carboxamide 1′,1′-dioxide]	143
COc1cccc(S(=O)(=O)N2c3ccc(C(=O)Nc4cccc(S(=O)(=O)N=C(N(C)C)N(C)C)c4)cc3C3(CCS(=O)(=O)CC3)C2C2CC2)c1 (single isomer, unassigned) [Example 62.1, N-(3-{[bis(dimethylamino)methylidene]sulfamoyl}phenyl)-2-cyclopropyl-1-[(3-methoxyphenyl)sulfonyl]-1,2,2′,3′,5′,6′-hexahydrospiro[indole-3,4′-thiopyran]-5-carboxamide 1′,1′-dioxide]	6430
O=C(NCc1ccccc1Cl)c1ccc2c(c1)C1(CCS(=O)(=O)CC1)C(C1CC1)N2S(=O)(=O)c1ccc(F)cc1 (stereo not shown) [Example 18, N-(2-chlorobenzyl)-2-cyclopropyl-1-[(4-fluorophenyl)sulfonyl]-1,2,2′,3′,5′,6′-hexahydrospiro[indole-3,4′-thiopyran]-5-carboxamide 1′,1′-dioxide]	47
CN1CCCC1=NS(=O)(=O)c1cccc(NC(=O)c2ccc3c(c2)C2(CCS(=O)(=O)CC2)C(C2CC2)N3S(=O)(=O)c2ccc(C(N)=O)cc2)c1 (stereo not shown) [Example 95, 1-[(4-carbamoylphenyl)sulfonyl]-2-cyclopropyl-N-{3-[(1-methylpyrrolidin-2-ylidene)sulfamoyl]phenyl}-1,2,2′,3′,5′,6′-hexahydrospiro[indole-3,4′-thiopyran]-5-carboxamide 1′,1′-dioxide]	225
COc1cccc(S(=O)(=O)N2c3ccc(C(=O)NCc4ccccc4F)cc3C3(CCS(=O)(=O)CC3)C2C2CC2)c1 (single isomer, unassigned) [Example 47.1, 2-cyclopropyl-N-(2-fluorobenzyl)-1-[(3-methoxyphenyl)sulfonyl]-1,2,2′,3′,5′,6′-hexahydrospiro[indole-3,4′-thiopyran]-5-carboxamide 1′,1′-dioxide]	73
O=C(Nc1ccon1)c1ccc2c(c1)C1(CCS(=O)(=O)CC1)C(C1CC1)N2S(=O)(=O)c1ccc(F)cc1 (stereo not shown) [Example 63, 2-cyclopropyl-1-[(4-fluorophenyl)sulfonyl]-N-(1,2-oxazol-3-yl)-1,2,2′,3′,5′,6′-hexahydrospiro[indole-3,4′-thiopyran]-5-carboxamide 1′,1′-dioxide]	325
CC1N(S(=O)(=O)c2ccc(F)cc2)c2ccc(C(=O)NCc3ccc(F)cc3)cc2C12CCOCC2 (stereo not shown) [Example 7, N-(4-fluorobenzyl)-1-[(4-fluorophenyl)sulfonyl]-2-methyl-1,2,2′,3′,5′,6′-hexahydrospiro[indole-3,4′-pyran]-5-carboxamide]	1060
O=C(NCc1ccccc1C(F)(F)F)c1ccc2c(c1)C1(CCS(=O)(=O)CC1)C(C1CC1)N2S(=O)(=O)c1ccc(OC(F)F)cc1 (stereo not shown) [Example 92, 2-cyclopropyl-1-{[4-(difluoromethoxy)phenyl]sulfonyl}-N-[2-(trifluoromethyl)benzyl]-1,2,2′,3′,5′,6′-hexahydrospiro[indole-3,4′-thiopyran]-5-carboxamide 1′,1′-dioxide]	31
COc1cccc(S(=O)(=O)N2c3ccc(C(=O)Nc4cccc(S(=O)(=O)N(C)C)c4)cc3C3(CCS(=O)(=O)CC3)C2C2CC2)c1 (stereo not shown) [Example 43, 2-cyclopropyl-N-[3-(N,N-dimethylsulfamoyl)phenyl]-1-[(3-methoxyphenyl)sulfonyl]-1,2,2′,3′,5′,6′-hexahydrospiro[indole-3,4′-thiopyran]-5-carboxamide 1′,1′-dioxide]	56
O=C(NCC1CC1)c1ccc2c(c1)C1(CCS(=O)(=O)CC1)C(C1CC1)N2S(=O)(=O)c1ccc(F)cc1 (stereo not shown) [Example 35, 2-cyclopropyl-N-(cyclopropylmethyl)-1-[(4-fluorophenyl)sulfonyl]-1,2,2′,3′,5′,6′-hexahydrospiro[indole-3,4′-thiopyran]-5-carboxamide 1′,1′-dioxide]	627
CS(=O)(=O)c1cccc(NC(=O)c2ccc3c(c2)C2(CCS(=O)(=O)CC2)C(C2CC2)N3S(=O)(=O)c2ccc(F)cc2)c1 (single isomer, unassigned) [Example 23.2, 2-cyclopropyl-1-[(4-fluorophenyl)sulfonyl]-N-(3-mesylphenyl)-1,2,2′,3′,5′,6′-hexahydrospiro[indole-3,4′-thiopyran]-5-carboxamide 1′,1′-dioxide]	153
N#Cc1ccc(S(=O)(=O)N2c3ccc(C(=O)Nc4cncc(Cl)c4)cc3C3(CCS(=O)(=O)CC3)C2C2CC2)cc1 (single isomer, unassigned) [Example 71.1, N-(5-chloropyridin-3-yl)-1-[(4-cyanophenyl)sulfonyl]-2-cyclopropyl-1,2,2′,3′,5′,6′-hexahydrospiro[indole-3,4′-thiopyran]-5-carboxamide 1′,1′-dioxide]	49
COc1cccc(S(=O)(=O)N2c3ccc(C(=O)NCc4ncccc4C(F)(F)F)cc3C3(CCS(=O)(=O)CC3)C2C2CC2)c1 (stereo not shown) [Example 39, 2-cyclopropyl-1-[(3-methoxyphenyl)sulfonyl]-N-{[3-(trifluoromethyl)pyridin-2-yl]methyl}-1,2,2′,3′,5′,6′-hexahydrospiro[indole-3,4′-thiopyran]-5-carboxamide 1′,1′-dioxide]	53
COc1cccc(S(=O)(=O)N2c3ccc(C(=O)NCc4ccccc4F)cc3C3(CCS(=O)(=O)CC3)C2C2CC2)c1 (single isomer, unassigned) [Example 47.2, 2-cyclopropyl-N-(2-fluorobenzyl)-1-[(3-methoxyphenyl)sulfonyl]-1,2,2′,3′,5′,6′-hexahydrospiro[indole-3,4′-thiopyran]-5-carboxamide 1′,1′-dioxide]	8870
CC1N(S(=O)(=O)c2ccc(F)cc2)c2ccc(C(=O)Nc3cccc(S(C)(=O)=O)c3)cc2C12CCOCC2 (stereo not shown) [Example 10, 1-[(4-fluorophenyl)sulfonyl]-N-(3-mesylphenyl)-2-methyl-1,2,2′,3′,5′,6′-hexahydrospiro[indole-3,4′-pyran]-5-carboxamide]	1390
COc1cccc(S(=O)(=O)N2c3ccc(C(=O)Nc4cccc(S(N)(=O)=O)c4)cc3C3(CCS(=O)(=O)CC3)C2C2CC2)c1 (stereo not shown) [Example 42, 2-cyclopropyl-1-[(3-methoxyphenyl)sulfonyl]-N-(3-sulfamoylphenyl)-1,2,2′,3′,5′,6′-hexahydrospiro[indole-3,4′-thiopyran]-5-carboxamide 1′,1′-dioxide]	96
O=C(Nc1ccc2c(c1)C1(CCS(=O)(=O)CC1)C(C1CC1)N2S(=O)(=O)c1ccc(F)cc1)C1CCCC1 (stereo not shown) [Example 99, N-{2-cyclopropyl-1-[(4-fluorophenyl)sulfonyl]-1′,1′-dioxido-1,2,2′,3′,5′,6′-hexahydrospiro[indole-3,4′-thiopyran]-5-yl}cyclopentanecarboxamide]	300
O=C(NCc1ccccc1C(F)(F)F)c1ccc2c(c1)C1(CCS(=O)(=O)CC1)C(C1CC1)N2S(=O)(=O)c1ccc(F)cc1 (single isomer, unassigned) [Example 32.2, 2-cyclopropyl-1-[(4-fluorophenyl)sulfonyl]-N-[2-(trifluoromethyl)benzyl]-1,2,2′,3′,5′,6′-hexahydrospiro[indole-3,4′-thiopyran]-5-carboxamide 1′,1′-dioxide]	1260
